Laboratory results published in patent US20240082260A1, “INHIBITOR OF PROTEIN KINASE D FOR USE IN PREVENTION OR TREATMENT OF HYPERLIPIDEMIA” (priority 2021, published 2024).

How the values were obtained:
Caco2 cells = experiment: Lipid transport (14C-fatty acid release) through Caco2 monolayer in transwell system; assay type: cell-based, human; conditions: 20 μM, 24 h, vs DMSO; FIG. 8
Method: Lipid transport studies were assessed in Caco2 cells seeded in trans-wells. 1.5×10^5 cells were seeded into a 12-well cell culture insert of 1 μm pore size Trans-well and maintained in for 14 consecutive days with media change every two days. For the lipids uptake and release, the apical side of the membrane was loaded with radioactive ^14C-palmitic acid (0.2 μCi), oleic acid (1 mM), and taurocholic acid (2 mM) in DMEM high glucose 10% FBS. The basal medium contained DMEM high glucose 0.1% FBS. After 24 hours of incubation, cell lysates and the apical and basolateral medium was collected and the ^14C-palmitic acid was measured in a scintillation counter for aliquots of apical and basal medium and for cell lysate. The same protocol was used in Caco2 cells that were treated with CRT0066101 (3 and 5 μM) for 24 h (added together with the mentioned radioactive fatty acid cocktail).
In order to test the potential of PKD inhibitors to restrict lipid transport via epithelial monolayer, we employed Caco2 cells seeded into the Transwells system. Briefly, we plated 1.5×10^5 cells seeded into a 12-well cell culture inserts of 1-μm pore size Transwell and maintained in for 14 consecutive days with media change every 2 days. For the lipid uptake and release, the apical side of the membrane was loaded with radioactive 14C-palmitic acid (0.2 μCi), oleic acid (1 mM), and taurocholic acid (2 mM) in DMEM high glucose 10% FBS. The basal medium contained DMEM high glucose 0.1% FBS. After 24 h of incubation, cell lysates and the apical and basolateral medium were collected and the 14C-palmitic acid was measured in a scintillation counter for aliquots of apical and basal medium and for cell lysate. To assess the efficiency of different PKD inhibitors, Caco2 cells were treated with either CRT0066101 (5 μM), CID2011756 (20 μM), CID755673 (20 μM), 1-NM-PP1 (20 μM), or control solvent solution (DMSO) for 24 h (added together with the mentioned radioactive FA cocktail).

LDLR-deficient mice = conditions: cited from earlier work
male C57BL/6 mice on HFD = experiment: Oral PKD inhibitor in HFD-fed C57BL/6 mice (diet-induced obesity and diabetes); assay type: in vivo, mouse; conditions: oral administration, mice; also said to prevent hyperlipidemia and diabetes and improve microflora
Method: Mice body weight development was closely monitored and reported here on a weekly basis when mice were on a specified diet. All experiments were performed in male mice.
PKD inhibitor CRT0066101 was dissolved in water (10 mg/kg) and administered orally to the mice by daily gavage, while the control mice were gavaged with water. Mice were maintained on the specified diets and had ab libitum access to food and water. C57BL/6 mice were administered CRT inhibitor treatment at 4-weeks of age, while for the rescue experiment, inhibitor was given under the same circumstances but treatment started only after 7 weeks of HFD feeding. Intestinal barrier permeability was further assessed 1 hour after oral gavage of FITC-Dextran 4.
Energy expenditure, food intake, and activity measurements were obtained in a PhenoMaster (TSE Systems) as previously described (El-Merahbi, Viera et al., 2020, Trujillo Viera, El-Merahbi et al., 2016). Briefly, mice were kept in separate metabolic cages with unlimited access to water and to the specified diet. After 48 hours of acclimation, data was collected every 10 min including photobeam breaks, oxygen consumption, carbon dioxide dissipation, and food and water consumption. Results in bars represent the average of each night/day cycle.
A glucose tolerance test (GTT) was performed after overnight fasting. Mice blood glucose was assessed before and 15, 30, 60, 90, and 120 minutes after intraperitoneal injection of glucose (2 g/kg). For the Insulin tolerance test (ITT), the same measurements were performed after 4 hours of fasting and intraperitoneal injection of 0.5 U/kg of recombinant insulin. For glucose measurements, one blood drop was drawn from the tail tip into a test strip and measured with a glucometer (Accu-Chek® Roche).
Lipids tolerance test was performed as described previously (Wang, Rong et al., 2016b). Briefly, overnight fasted mice were gavaged with olive oil (10 μL/g body weight). Blood was collected at indicated times for measurement of serum triglycerides content. For lipids absorption under tyloxapol treatment, 250 μg/g of body weight were i.p. injected to mice 30 minutes before the gavage of olive oil 5 μL/g body weight.
Liver triglycerides were measured by homogenization of 50 mg of liver in 500 uL of lysis buffer and lipids extraction in methanol:chloroform, phase extraction and evaporation. The lipids were redissolved in DMSO and triglycerides quantified with the mentioned kit and according to the manufacturers' instructions.
The bedding of single-caged mice was collected and the ingested food ingestion from the individual mice was assessed. All the stools were manually collected. After overnight dissecation at 60° C., the samples were weighted and frozen for further analysis. The amount of feces produced per mouse was compared to the amount of food consumed and the weight gain. About 3 g of dried feces material were homogenized and 1 g was pressed into a tablet and accurately weighted. Calorie content from feces and diet was measured in duplicates in a 6400 Automatic Isoperibol calorimeter (Parr Instrument Company). To analyze energy excreted, the amount of energy in feces was compared to the amount of energy ingested (the product between grams of food and caloric content of the food). Lipids extraction from feces was performed as previously described (Kraus, Yang et al., 2015).
Proteins from tissues and cell culture were extracted with RIPA buffer supplemented with phosphatase and protease inhibitor (PPI, Thermo Fisher Scientific). Protein concentration was measured by Pierce™ BCA Protein Assay Kit (Thermo Fisher Scientific) following the manufacturer's protocol. Reduced protein extracts were separated on 10% SDS-PAGE gels by electrophoresis and transferred to PVDF membranes under wet transfer. Membranes were blocked in 5% (w/v) milk in TBS-T before overnight probing with indicated primary antibodies at 4° C., followed by TBS-T washes and incubation with corresponding secondary antibody.

Row | Compound | lipid transport through the Caco2 monolayer (Caco2 cells) | course of atherosclerosis (LDLR-deficient mice) | obesity induced by a high-fat diet (summary statement) (male C57BL/6 mice on HFD)
1 | CC(C)(C)n1nc(Cc2cccc3ccccc23)c2c(N)ncnc21 [1-NM-PP1, 1-(tert-butyl)-3-(nafthalen-1-ylmethyl)-1H-pirazol[3,4-d]pyrimidine-4-amine] | significant reduction in lipid transport | – | –
2 | CC(C)c1c(C(=O)Nc2ccccc2)c(-c2ccccc2)c(-c2ccc(F)cc2)n1CC[C@@H](O)C[C@@H](O)CC(=O)O [Atorvastatin] | – | efficiently attenuating the course of atherosclerosis | –
3 | O=C1NCCCc2c1oc1ccc(O)cc21 [CID755673] | significant reduction in lipid transport | – | significantly reduces obesity induced by a high-fat diet
4 | O=C(Nc1ccc(CN2CCOCC2)cc1)c1ccc(-c2cccc(Cl)c2)o1 [CID2011756] | significant reduction in lipid transport | – | –
